{"source": "patent US10813891B2", "about": "“Method of inhibiting chronification of pain” (priority 2011, dated 2020)", "type_in_all_cases": "in vivo, rat", "key": {"[1]": {"test_system": "mRNA encoding ATF3, IL-6 and BDNF", "experiment": "Real time qRT-PCR of mRNA in DRG and lumbar spinal cord of CCI-SN rats", "settings": "subchronic 10 mg/kg i.p. twice daily; ipsilateral L4-L6 DRG and dorsal quadrant of lumbar enlargement; 4 h after last injection", "protocol": "(§1) Subchronic treatment consisted of twice daily injections of tapentadol (10 mg/kg, i.p. at 10:00 am and 6:00 pm) or saline for 4 days starting on the 15th day after nerve ligation in both CCI-ION and CCI-SN rats. Animals were further injected with tapentadol (10 mg/kg i.p.) or saline at 10:00 am the following day (19th day post-surgery), and assessment of allodynia with von Frey filament tests (see below) was made at various times up to 4 hours after this injection. All rats were killed by decapitation 4 hours after the last injection for real-time qRT-PCR determinations of specific mRNAs in ganglia and central tissues (see below).\nAnimals used for qRT-PCR procedure were decapitated immediately after performance of von Frey filament test four hours after the last injection of tapentadol or saline for subchronic treatment conditions (see above). […]\nFirst-stranded cDNA synthesis (from 660 ng total RNA per 20 μl reaction mixture) was carried out using SuperScript™ III Reverse Transcriptase and random primers (250 ng per reaction), as recommended by the manufacturer (Invitrogen, Cergy Pontoise, France). […] Semi-quantitative determinations were made with reference to the reporter gene encoding glyceraldehyde 3-phosphate dehydrogenase (GaPDH; Rn99999916_sl). […] Specific mRNA levels were calculated after normalizing from GaDPH mRNA in each sample (Latrémolière et al., 2008). […]"}, "CCI-SN rats": {"test_system": "CCI-SN rats", "experiment": "Paw pressure (Randall-Selitto) test in CCI-SN rats", "settings": "10 mg/kg i.p.", "protocol": "(§2) Male Sprague-Dawley rats (Charles River Laboratories, L'Arbresle, France), weighing 150-200 g on arrival, were used. Animals were maintained under controlled environmental conditions (22±1° C., 60% relative humidity, 12 h/12 h light/dark cycle, food and water ad libitum) starting from reception in the laboratory, for at least 1 week before any intervention or treatment and thereafter, until euthanasia.\nRats were anaesthetized as above and the common sciatic nerve was exposed. Using a dissection microscope (2× magnification), four chromic catgut (5-0) ligations were tied loosely with about 1 mm spacing, proximally to the sciatic trifurcation (Bennett and Xie, 1988). Finally, the skin and muscle were sewed using silk sutures (4-0). In sham-operated animals, the same surgery was performed, but the nerve was not ligated.\n(§3) Tapentadol (1, 3 and 10 mg/kg i.p.), reboxetine (10 mg/kg i.p.), morphine (1 and 3 mg/kg s.c.) or their vehicle (0.9% NaCl) were injected acutely 14 days after surgery, when allodynia/hyperalgesia reached a plateau in both CCI-SN and CCI-ION rats. Behavioral tests were performed at various times for up to 4 h after injection. In drug association procedure, reboxetine or saline was administered 15 min before morphine or saline."}, "CCI-ION rats": {"test_system": "CCI-ION rats", "protocol": "as §2\nRats were anaesthetized with sodium pentobarbital (50 mg/kg i.p.). Unilateral CCI-ION was performed under direct visual control using a Zeiss microscope (10-25×). Briefly, the head was fixed in a Horsley-Clarke stereotaxic frame and a midline scalp incision was made, exposing skull and nasal bone. The edge of the orbit, formed by the maxillary, frontal, lacrimal, and zygomatic bones, was dissected free. The orbital contents were then gently deflected to give access to the infraorbital nerve which was dissected free at its most rostral extent in the orbital cavity, just caudal to the infraorbital foramen. Only 5 mm of the nerve could be freed, providing the space for placement of two chromic catgut (5-0) ligations tied loosely (with about 2 mm spacing) around it. […] Finally, scalp incision was closed using silk sutures (4-0). In sham-operated rats, the ION was exposed using the same procedure, but was not ligated.\nas §3, §1\nRats were placed individually in small (35×20×15 cm) plastic cages for a 2 h habituation period. Before any stimulation session, rats freely explored the observation cage and the testing environments for 2 h. Then mechanical sensitivity was determined with a graded series of […] von Frey filaments (Bioseb, Bordeaux, France). The filaments produced a bending force of 0.40, 0.60, 1.00, 2.00, 4.00, 6.00, 8.00, 10.00 and 12.00 g, respectively. The stimuli were applied within the ION territory (vibrissae pad) three times on the nerve-injured side and then on the contralateral side for a total of 6 applications of each filament per rat, always beginning with the filament producing the lowest force. The von Frey filaments were applied at least 3 seconds after the rat had returned to its initial resting state. For each session, the complete series of von Frey filaments was tested in increasing force order. […] The latter responses represented the highest scores in the rank-ordered response scoring system initially described by Vos et al. (1994). Under our own conditions, the mechanical response threshold was determined as the minimal force filament causing at least one among these responses to at least 2 out of the 3 applications in vibrissae territory. […] To avoid nonspecific responses, only these rats were included in the study."}}}
{"smiles": "CC[C@@H](c1cccc(O)c1)[C@@H](C)CN(C)C", "note": "[Tapentadol, (−)-(1R,2R)-3-(3-dimethylamino-1-ethyl-2-methyl-propyl)-phenol]", "values": [{"measurement": "levels of mRNA encoding ATF3, IL-6 and BDNF, tapentadol vs saline", "setting": "[1]", "value": "not significantly different"}, {"measurement": "duration of increase in pressure threshold values", "setting": "CCI-SN rats", "value": "at least 60 min"}, {"measurement": "pressure threshold values to trigger vocalization, vs untreated healthy rats", "setting": "CCI-SN rats; first 45 min after administration", "value": "+20%"}, {"measurement": "pressure threshold values to cause hindpaw withdrawal", "setting": "CCI-SN rats; first hour after treatment, vs intact healthy rats", "value": "did not significantly differ from those determined in intact healthy rats"}, {"measurement": "anti-allodynic effect after subchronic pretreatment vs saline pretreatment", "setting": "CCI-ION rats; 10 mg/kg i.p. twice daily for four days, challenge 10 mg/kg i.p. day 19", "value": "had the same characteristics (amplitude, duration)"}, {"measurement": "increase in pressure threshold value compared to saline-treated CCI-ION rats", "setting": "CCI-ION rats; acute 1 mg/kg i.p., first 45 min", "value": "up to 6 fold"}, {"measurement": "duration of statistically significant anti-allodynic effect", "setting": "CCI-ION rats; acute 10 mg/kg i.p.", "value": "at least two hours"}, {"measurement": "pressure threshold values higher than those determined prior to injection", "setting": "CCI-ION rats; acute 10 mg/kg i.p., 30-60 min after injection", "value": "15-20 fold"}]}
